Where no end group is shown, it is not given here.
Columns and labels:
Experiment in all cases: Histone peptide microarray
Type in all cases: binding, human
ING3 = conditions: ING3; sheet "Array Heatmap"; each array performed twice, total n = 4
Text: (§1) To more comprehensively define the histone interactions of the 31 PHD readers identified from the domain microarray analyses, we probed each on an alternate microarray platform containing a library of 293 synthetic histone peptides with single or combinatorial PTMs (Additional file 2: Figure S4 and Additional file 3: Table S2).
(§2) The 31 GST-tagged PHD readers identified in the PHD finger domain array were expressed and purified as previously. Histone peptide arrays and peptide pulldown assays were conducted as recently described (specifically, the optimized protocol from Petell et al. for the former).
(§3) Supplementary file 13072_2020_328_MOESM3_ESM.xlsx: Additional file 3: Table S2. […] Excel Tab Peptide List is a compiled list of the entire 293 histone peptide library with amino acid sequence ranges. […] Each number corresponds to the peptide number designated in Peptide List. Excel Tab Average Signals is a compiled set of binding data: chromatin reader at 0.5 μM vs. entire 293 peptide library. Data is presented as the average and standard deviation of 4 replicates. The average signals are colored to indicate signal intensity with green being strong and white being weak/low. […] Key: red= stronger relative binding; blue = weaker relative binding. Excel Tab Array info summary is a table summarizing the domains, sequence coverage, array signal range, and noise for each of the GST-tagged readers assayed on the peptide microarrays.

KDM7A = conditions: KDM7A; sheet "Array Heatmap"; each array performed twice, total n = 4
Text: as §1, §2, §3

DIDO1 = conditions: DIDO1; sheet "Array Heatmap"; each array performed twice, total n = 4
Text: as §1, §2, §3

PHF23 = conditions: PHF23; sheet "Array Heatmap"; each array performed twice, total n = 4
Text: as §1, §2, §3

PHF8 = conditions: PHF8; sheet "Array Heatmap"; each array performed twice, total n = 4
Text: as §1, §2, §3

MLL5 = conditions: MLL5; sheet "Array Heatmap"; each array performed twice, total n = 4
Text: as §1, §2, §3

PHF13 = conditions: PHF13; sheet "Array Heatmap"; each array performed twice, total n = 4
Text: as §1, §2, §3

TAF3 = conditions: TAF3; sheet "Array Heatmap"; each array performed twice, total n = 4
Text: as §1, §2, §3

AIRE (PP) = conditions: AIRE (PP); sheet "Array Heatmap"; each array performed twice, total n = 4
Text: as §1, §2, §3

TRIM66 (PB) = conditions: TRIM66 (PB); sheet "Array Heatmap"; each array performed twice, total n = 4
Text: as §1, §2, §3

PHF2 = conditions: PHF2; sheet "Array Heatmap"; each array performed twice, total n = 4
Text: as §1, §2, §3

MORC3 (CW) = conditions: MORC3 (CW); sheet "Array Heatmap"; each array performed twice, total n = 4
Text: as §1, §2, §3

DPF2 (PPC2W2) = conditions: DPF2 (PPC2W2); sheet "Array Heatmap"; each array performed twice, total n = 4
Text: as §1, §2, §3

CHD5 (PPCC) = conditions: CHD5 (PPCC); sheet "Array Heatmap"; each array performed twice, total n = 4
Text: as §1, §2, §3

CHD5 (PCC) = conditions: CHD5 (PCC); sheet "Array Heatmap"; each array performed twice, total n = 4
Text: as §1, §2, §3

ING5 = conditions: ING5; sheet "Array Heatmap"; each array performed twice, total n = 4
Text: as §1, §2, §3

KDM5B (3) = conditions: KDM5B (3); sheet "Array Heatmap"; each array performed twice, total n = 4
Text: as §1, §2, §3

KDM5A (1) = conditions: KDM5A (1); sheet "Array Heatmap"; each array performed twice, total n = 4
Text: as §1, §2, §3

ING4 = conditions: ING4; sheet "Array Heatmap"; each array performed twice, total n = 4
Text: as §1, §2, §3

SP140L = conditions: SP140L; sheet "Array Heatmap"; each array performed twice, total n = 4
Text: as §1, §2, §3

KDM5B (1) = conditions: KDM5B (1); sheet "Array Heatmap"; each array performed twice, total n = 4
Text: as §1, §2, §3

ING1 = conditions: ING1; sheet "Array Heatmap"; each array performed twice, total n = 4
Text: as §1, §2, §3

BAZ2B = conditions: BAZ2B; sheet "Array Heatmap"; each array performed twice, total n = 4
Text: as §1, §2, §3

CHD4 (PPCC) = conditions: CHD4 (PPCC); sheet "Array Heatmap"; each array performed twice, total n = 4
Text: as §1, §2, §3

PHF21A = conditions: PHF21A; sheet "Array Heatmap"; each array performed twice, total n = 4
Text: as §1, §2, §3

ING2 = conditions: ING2; sheet "Array Heatmap"; each array performed twice, total n = 4
Text: as §1, §2, §3

BPTF (PB) = conditions: BPTF (PB); sheet "Array Heatmap"; each array performed twice, total n = 4
Text: as §1, §2, §3

KDM5A (3) = conditions: KDM5A (3); sheet "Array Heatmap"; each array performed twice, total n = 4
Text: as §1, §2, §3

KDM4C (TTP) = conditions: KDM4C (TTP); sheet "Array Heatmap"; each array performed twice, total n = 4
Text: as §1, §2, §3

PHRF1 (RP) = conditions: PHRF1 (RP); sheet "Array Heatmap"; each array performed twice, total n = 4
Text: as §1, §2, §3

RAG2 = conditions: RAG2; sheet "Array Heatmap"; each array performed twice, total n = 4
Text: as §1, §2, §3

Substance	Array Heatmap value (peptide array signal) (ING3)	Array Heatmap value (peptide array signal) (KDM7A)	Array Heatmap value (peptide array signal) (DIDO1)	Array Heatmap value (peptide array signal) (PHF23)	Array Heatmap value (peptide array signal) (PHF8)	Array Heatmap value (peptide array signal) (MLL5)	Array Heatmap value (peptide array signal) (PHF13)	Array Heatmap value (peptide array signal) (TAF3)	Array Heatmap value (peptide array signal) (AIRE (PP))	Array Heatmap value (peptide array signal) (TRIM66 (PB))	Array Heatmap value (peptide array signal) (PHF2)	Array Heatmap value (peptide array signal) (MORC3 (CW))	Array Heatmap value (peptide array signal) (DPF2 (PPC2W2))	Array Heatmap value (peptide array signal) (CHD5 (PPCC))	Array Heatmap value (peptide array signal) (CHD5 (PCC))	Array Heatmap value (peptide array signal) (ING5)	Array Heatmap value (peptide array signal) (KDM5B (3))	Array Heatmap value (peptide array signal) (KDM5A (1))	Array Heatmap value (peptide array signal) (ING4)	Array Heatmap value (peptide array signal) (SP140L)	further results
H2A.X (1-17): H2AX 1-17 (SGRGKTGGKARAKAKSR; UniProt P16104 2-18, looked up, fragment)	0.4419	0.5198	0.6032	0.4786	0.3196	0.5474	0.6046	0.2689	0.5574	0.5377	0.3941	0.3549	0.6636	0.5657	0.8255	0.3684	0.4974	0.4987	0.4775	0.3804	Array Heatmap value (peptide array signal) (KDM5B (1)): 0.6651; Array Heatmap value (peptide array signal) (ING1): 0.4806; Array Heatmap value (peptide array signal) (BAZ2B): 0.5024; Array Heatmap value (peptide array signal) (CHD4 (PPCC)): 0.5416; Array Heatmap value (peptide array signal) (PHF21A): 0.4705; Array Heatmap value (peptide array signal) (ING2): 0.5852; Array Heatmap value (peptide array signal) (BPTF (PB)): 0.3452; Array Heatmap value (peptide array signal) (KDM5A (3)): 0.4093; Array Heatmap value (peptide array signal) (KDM4C (TTP)): 0.5423; Array Heatmap value (peptide array signal) (PHRF1 (RP)): 0.3918; Array Heatmap value (peptide array signal) (RAG2): 0.2388
H2A.X K5ac: H2AX 1-17 (SGRGK(Ac)TGGKARAKAKSR; UniProt P16104 2-18, looked up, fragment)	0.4453	0.4169	0.6192	0.5099	0.3518	0.5039	0.5821	0.2702	0.4642	0.5335	0.3936	0.3506	0.6362	0.549	0.7832	0.3639	0.4746	0.4768	0.4505	0.3645	Array Heatmap value (peptide array signal) (KDM5B (1)): 0.7034; Array Heatmap value (peptide array signal) (ING1): 0.4851; Array Heatmap value (peptide array signal) (BAZ2B): 0.4631; Array Heatmap value (peptide array signal) (CHD4 (PPCC)): 0.5228; Array Heatmap value (peptide array signal) (PHF21A): 0.4552; Array Heatmap value (peptide array signal) (ING2): 0.5785; Array Heatmap value (peptide array signal) (BPTF (PB)): 0.3356; Array Heatmap value (peptide array signal) (KDM5A (3)): 0.4343; Array Heatmap value (peptide array signal) (KDM4C (TTP)): 0.5139; Array Heatmap value (peptide array signal) (PHRF1 (RP)): 0.4233; Array Heatmap value (peptide array signal) (RAG2): 0.2437

From paper PMC6979384, “Characterization of the plant homeodomain (PHD) reader family for their histone tail interactions” (Epigenetics & Chromatin, 2020)
